This assay has as its target STM3169 (Salmonella enterica, UniProt Q8ZM02). Nature of the assay: intrinsic fluorescence titration; supported by MST (KD […]) and thermal shift. The assay is classed as binding.

Chain of STM3169 (Q8ZM02 entry or part of it): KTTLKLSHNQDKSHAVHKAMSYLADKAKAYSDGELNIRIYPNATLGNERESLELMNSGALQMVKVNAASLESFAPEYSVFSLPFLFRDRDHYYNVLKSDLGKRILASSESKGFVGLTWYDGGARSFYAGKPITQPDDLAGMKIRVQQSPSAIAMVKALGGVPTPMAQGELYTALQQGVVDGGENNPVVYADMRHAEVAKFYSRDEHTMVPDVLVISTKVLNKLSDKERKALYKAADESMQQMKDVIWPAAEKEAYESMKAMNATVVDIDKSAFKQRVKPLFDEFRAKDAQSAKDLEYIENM

As to `O=C(O)[C@H]1OC(O)[C@H](O)[C@@H](O)[C@@H]1O` (stereo partly drawn) [D-glucuronate], the Kd (commonly the constant that tells how readily two partners part at equilibrium) was determined as 0.17 ± 0.077 µM.

(Values after PMC7660916, “The Salmonella enterica serovar Typhimurium virulence factor STM3169 is a hexuronic acid binding protein component of a TRAP transporter” (Microbiology, 2020).)
